{"source": "paper PMC7385171", "about": "“Molecular engineering of safe and efficacious oral basal insulin” (Nature Communications, 2020)", "origin": "cited, not measured here", "settings": "man, 8-week study; oral for the analogue, SC for insulin glargine", "data": [{"substance": "insulin glargine", "values": [{"measurement": "coefficient of variation of fasting plasma glucose", "result": 17.5, "unit": "%"}]}]}
